Patent US11479802B2, “Assays for screening activity of modulators of members of the hydroxy steroid (17-beta) dehydrogenase (HSD17B) family” (Regeneron Pharmaceuticals, Inc., priority 2017, dated 2022)

Molecular target: T1, human HSD17B13 (Homo sapiens, UniProt Q7Z5P4)
T1 sequence (Q7Z5P4 20-300): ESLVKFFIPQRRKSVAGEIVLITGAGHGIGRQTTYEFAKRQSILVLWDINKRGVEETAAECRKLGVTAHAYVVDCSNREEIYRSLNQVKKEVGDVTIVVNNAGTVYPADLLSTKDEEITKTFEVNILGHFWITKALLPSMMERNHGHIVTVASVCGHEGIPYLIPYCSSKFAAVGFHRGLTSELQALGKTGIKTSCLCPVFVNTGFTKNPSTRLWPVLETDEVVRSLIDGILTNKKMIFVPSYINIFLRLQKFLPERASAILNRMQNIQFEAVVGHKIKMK
Test: Substrate screening of steroid and bioactive lipid libraries against purified recombinant HSD17B13 (NADH-linked luciferase assay)
Format: biochemical
Conditions: for HSD17B13 Enzymatic Activity Relative Light Units: 500 μM NAD+, 100 ng enzyme, 3 hours at 23° C.; for HSD17B13 Enzymatic Activity Percent Estradiol Control: normalized to 50 μM estradiol after subtraction of 5% DMSO
Description: To understand the functional consequences of premature truncation of the HSD17B13 protein due to rs72613567:TA (the associated variant, rs72613567, is an insertion of an adenine adjacent to the donor splice site of exon six (TA allele)), the enzymatic activity of isoforms A and D was evaluated in vitro using recombinant protein and nicotinamide […] dinucleotide as cofactor. Reactions were performed in a final volume of 40 μl of assay buffer (0.2 M Tris-HCl, pH 7.5) which contained 500 μM NAD^+, 5 μM bioactive lipid or 50 μM steroid (all in a final concentration of 5% DMSO), and 100 ng of recombinant human HSD17B13. Reactions were incubated for 3 hours, at 23° C., after which an equal volume detection reagent was added. Following a 1 hour incubation at 23° C., the relative light units (RLUs) were measured on an Envision Plate Reader (Perkin Elmer). Raw RLU values were normalized as percent of control (50 μM estradiol) following subtraction of negative control (5% DMSO) using the following formula: Percent of control (POC)=100×(Sample (RLU)−Negative CTRLaverage)/(Positive CTRLaverage−Negative CTRLaverage).

[1] = Bioactive Lipid Library, 5 μM bioactive lipid (Estradiol Control 50 μM)
[2] = Bioactive Lipid Library, 5 μM bioactive lipid

Molecule	HSD17B13 Enzymatic Activity Relative Light Units [1]	HSD17B13 Enzymatic Activity Percent Estradiol Control [2]	HSD17B13 Enzymatic Activity Relative Light Units (Steroid Library, 50 μM steroid)	HSD17B13 Enzymatic Activity Percent Estradiol Control (Steroid Library, 50 μM steroid)
CCCCC[C@H](O)/C=C/[C@H]1C(=O)CC(=O)[C@@H]1CCCCCCC(=O)O [Prostaglandin K1]	223160 RLU	−4.74%	–	–
CCCCC/C=C\C=C\[C@@H](O)CCCCCCCCCC(=O)O [11(S)-HEDE]	1056440 RLU	57.23%	–	–
CCCCC[C@@H](/C=C/C=C\C/C=C\CCCCC(=O)O)OO [13(S)-HpOTrE(γ)]	268840 RLU	−1.34%	–	–
CC/C=C\C[C@H](O)/C=C/[C@@H]1[C@H]2C/C(=C/CCCC(=O)[O-])O[C@H]2C[C@H]1O.[Na+] [Prostaglandin I3 (sodium salt)]	333560 RLU	3.99%	–	–
CCCCC/C=C\C=C\[C@H](O)CCCCCCCC(=O)O [9(R)-HODE]	413280 RLU	9.40%	–	–
CCCCC/C=C\C/C=C\C/C=C\CC1OC1CCCC(=O)O (racemic) [(±)5(6)-EET]	360960 RLU	5.51%	–	–
O=C(O)CCC/C=C\C/C=C\C/C=C\C/C=C\CCCCCC(=O)O [20-carboxy Arachidonic Acid]	293760 RLU	−2.36%	–	–
CCCCC/C=C\C\C=C/C=C/C=C/[C@H](O)[C@@H](O)CCCC(=O)O [5(S),6(S)-DiHETE]	309080 RLU	4.07%	–	–
C[C@@H](O)CCC[C@H](O)/C=C/[C@H]1[C@H](O)CC(=O)[C@@H]1CCCCCCC(=O)O [19(R)-hydroxy Prostaglandin E1]	333160 RLU	3.96%	–	–
CC/C=C\C[C@@H](/C=C/C=C\CCCCCCCC(=O)O)OO [13(S)-HpOTrE]	35320 RLU	−18.70%	–	–
CCCCC[C@H](O)/C=C/[C@H]1OC(O)C[C@H](O)[C@@H]1CCCCC(=O)O (some centres unmarked) [2,3-dinor Thromboxane B1]	364840 RLU	3.01%	–	–
C[C@@H](O)CCC[C@H](O)/C=C/[C@H]1[C@H](O)CC(=O)[C@@H]1C/C=C\CCCC(=O)O [19(R)-hydroxy Prostaglandin E2]	347280 RLU	5.07%	–	–
CCCCCCCC/C(=C\CCCCCCCC(=O)O)[N+](=O)[O-] [10-Nitrooleate]	28200 RLU	−22.42%	–	–
CC/C=C\C/C=C\C/C=C\C/C=C\CC1OC1CCCC(=O)OC (centres unmarked) [5(6)-EpETE methyl ester]	337400 RLU	0.93%	–	–
CC/C=C/C[C@H](O)/C=C/[C@@H]1[C@@H](C/C=C\CCCC(=O)O)[C@@H](O)C[C@H]1O (relative stereo) [17-trans Prostaglandin F3α]	371720 RLU	7.01%	–	–
CCCCCCCC[C@H](O)/C=C/C=C\C=C\[C@H](O)CCCC(=O)O [Leukotriene B3]	2077280 RLU	141.82%	–	–
Androstanolone acetate	–	–	200560 RLU	0.70%
CC/C=C\C/C=C\C/C=C\C/C=C\C/C=C\CC1OC1CCC(=O)OC (racemic) [(±)4(5)-EpDPA methyl ester]	338320 RLU	1.00%	–	–

Molecule	HSD17B13 Enzymatic Activity Relative Light Units [1]	HSD17B13 Enzymatic Activity Percent Estradiol Control [2]	HSD17B13 Enzymatic Activity Relative Light Units (Steroid Library, 50 μM steroid)	HSD17B13 Enzymatic Activity Percent Estradiol Control (Steroid Library, 50 μM steroid)
CCCCC/C=C\C/C=C\C/C=C\C=C\C1CCCC(=O)O1 (racemic) [(±)5-HETE lactone]	348120 RLU	4.56%	–	–
CCCCC/C=C\C/C=C\C/C=C\C=C\C(=O)CCCC(=O)O [5-OxoETE]	261280 RLU	−1.90%	–	–
CCCCC/C=C\C=C\[C@H](O)CCCCCCCCCC(=O)O (racemic) [(±)11-HEDE]	1334080 RLU	77.87%	–	–
CCCCCC(=O)/C=C/C=C\CCCCCCCCCC(=O)O [15-OxoEDE]	261480 RLU	−1.88%	–	–
CCCCC[C@H](O)/C=C/C=C\C/C=C\CCCCCCC(=O)O [15(S)-HETrE]	638320 RLU	26.14%	–	–
CCCCCCCC[C@@H](O)C=CC=CC=C[C@@H](O)CCCC(=O)O [12-epi Leukotriene B3]	481880 RLU	15.71%	–	–
O=C(O)CCCCC(=O)CC[C@@H]1[C@@H](CCC(=O)O)[C@@H](O)C[C@H]1O [tetranor-PGFM]	367640 RLU	6.68%	–	–
C[C@]12CC[C@@H]3c4ccc(O)cc4CC[C@H]3[C@@H]1CCC2=O [Estrone]	–	–	–	0.45%
CC/C=C\C[C@H](O)/C=C/[C@H]1C=CC(=O)[C@@H]1C/C=C\CCCC(=O)O [Prostaglandin A3]	227000 RLU	−4.43%	–	–
O=C(O)CCC[C@H](O)\C=C/C=C/C=C/[C@H](O)C/C=C\CCCCCO [20-hydroxy Leukotriene B4]	654120 RLU	29.33%	–	–
CC(C)=CCC[C@]1(C)[C@@H](CC=C(C)C)C[C@@]2(CC=C(C)C)C(=O)[C@]1(C(=O)C(C)C)C(=O)C(CC=C(C)C)=C2O [Hyperforin]	23920 RLU	−22.74%	–	–
O=P([O-])(O)O[C@@H]1[C@@H](O)[C@H](O)[C@H](O)[C@H](O)[C@H]1OP(=O)([O-])O.[Na+].[Na+] [D-myo-Inositol-4,5-diphosphate (sodium salt)]	281680 RLU	−3.27%	–	–
CCCCCC(=O)/C=C/[C@@H]1[C@H](C/C=C\CCCC(=O)O)[C@@H](O)C[C@H]1O [8-iso-15-keto Prostaglandin F2α]	312360 RLU	2.31%	–	–
O=C(CCC/C=C\C/C=C\C/C=C\C/C=C\CCCCCO)NCCO [20-HETE Ethanolamide]	879760 RLU	41.89%	–	–
CCCCC/C=C\C\C=C/C=C/C=C/[C@@H](O)[C@@H](O)CCCC(=O)O [5(S),6(R)-DiHETE]	166040 RLU	1.66%	–	–
CCCCC(C)(C)[C@H](O)/C=C/[C@H]1[C@H](O)CC(=O)[C@@H]1C/C=C\CCCC(=O)Oc1ccc(NC(=O)c2ccc(NC(C)=O)cc2)cc1 [16,16-dimethyl Prostaglandin E2 p-(p-acetamidobenzamido) phenyl ester]	322280 RLU	3.10%	–	–
C=CCc1ccc(O)c(-c2ccc(O)c(CC=C)c2)c1 [Honokiol]	–	–	52920 RLU	−1.88%
C[C@]12CC[C@H](O)CC1=CC[C@@H]1[C@@H]2CC[C@]2(C)C(=O)CC[C@@H]12 [Dehydroepiandrosterone]	–	–	196240 RLU	0.62%
